From US10494384B2, “Urea peptoid boric acid compound, pharmaceutical composition thereof, preparation method therefor, and uses thereof” (Peking University, priority 2015, dated 2019) come the findings set out here.

Assay [1] deals with T1, 20S proteasome extracted from rat liver (CT-L) (Rattus norvegicus, UniProt P18421+P28075).
T1 construct: 20S proteasome extracted from rat liver; from tissue; host or cells: rat liver
Nature of the assay: inhibition of 20S proteasome, CT-L activity (fluorescent peptide). It counts as biochemical. Particulars: rat liver 20S proteasome, 37° C., 1 h, read-out: inhibition rates (%) CT-L. The method, then:
(§1) 1 μg of 20S proteasome extracted from rat liver was incubated with a 100 μL solution containing various concentrations of the present compounds, 50 μM fluorescent peptides and 20 mM Tris-HCl at 37° C. for 1 h, respectively. […] 0.1% DMSO was used as a solvent control. Compared with the fluorescence of solvent control, an inhibition rate or IC50 value was calculated.

Assay [2] deals with T2, 20S proteasome extracted from rat liver (PGPH) (Rattus norvegicus, UniProt P28073+Q9JHW0).
T2 construct: 20S proteasome extracted from rat liver; from tissue; host or cells: rat liver
In words: inhibition of 20S proteasome, PGPH activity (fluorescent peptide). The class given is biochemical. Conditions: rat liver 20S proteasome, 37° C., 1 h, read-out: inhibition rates (%) PGPH. The method, then: as §1

Assay [3] has as its target T3, 20S proteasome extracted from rat liver (T-L) (Rattus norvegicus, UniProt P40112+Q9JHW0).
T3 construct: 20S proteasome extracted from rat liver; from tissue; host or cells: rat liver
Nature of the assay: inhibition of 20S proteasome, T-L activity (fluorescent peptide). Conditions: rat liver 20S proteasome, 37° C., 1 h, read-out: inhibition rates (%) T-L. It counts as biochemical. The method, then: as §1

The test system of assay [4] is Hela, human cervical carcinoma. In words: preliminary anti-tumor screening in vitro, MTT method. The class given is cell-based. Conditions: read-out: inhibition rates (%) Hela. The gist of the method:
(§2)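 Inhibition rates measured at 0.1, 1 or 10 μM compound; cell growth read by MTT for Hela, SRB for BGC-823, MCF-7 and A549.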

Assay [5] deals with A549, human lung cancer. In words: preliminary anti-tumor screening in vitro, SRB method. The class given is cell-based. Particulars: read-out: inhibition rates (%) A549. The gist of the method: as §2
The subject of assay [6] is BGC-823, liver cancer. The description is as above. The class given is cell-based. Particulars: Homo sapiens, read-out: inhibition rates (%) BGC-823. The gist of the method:
as §2

The subject of assay [7] is MCF-7, breast cancer. The assay is described as above. Particulars: Homo sapiens, read-out: inhibition rates (%) MCF-7; for inhibition at 0.1 µM: MCF7, 0.1 μM; for inhibition at 1 µM: MCF7, 1 μM; for inhibition at 10 µM: MCF7, 10 μM. The class given is cell-based. The gist of the method:
as §2

Assay [8] relates to MGC803 stomach cancer cells. In words: anti-tumor activity in vitro (IC50), MTT. It counts as cell-based. Particulars: Homo sapiens, MGC-803; MGC80-3, MTT, 72 h, value ± spread; read-out: IC50 (μM), growth of stomach cancer cells (MGC80-3). The protocol:
Cancer cells were cultured in vitro. When cell growth reached logarithmic phase, the cells were collected and centrifuged at 1000 rpm for 5 min, before the supernate was removed and the cells were suspended in a moderate amount of medium, and then the concentration of cell was adjusted to 3.5×10^4/mL. The cell suspension was added into a 96-well plate with 100 μL per well and cultured in a cell incubator (37° C., 5% CO2) for 24 h. Then test drugs of different end concentrations were added, and the negative control group was added DMSO (end concentration was 0.5%), while each group afforded three repetitive holes. After cultivation for another 72 h in the cell incubator, a solution containing 5 mg/ml MTT (20 μL) was added into each well and the 96-well plate was placed at 37° C. for 3 h. To each well was added 150 μL DMSO, after oscillation in a shaking table for 5 min, the optical density (OD) values at 492 nm/620 nm were measured. IC50 values were calculated by Prism Graphpad statistical software.

As to `CC(C)C[C@H](NC(=O)[C@H](Cc1ccccc1)NC(=O)[C@H](Cc1ccccc1)NC(=O)Nc1cccc(OCc2ccccc2)c1)B(O)O` [Example 23, N-L-phenylalanyl-L-phenylalanyl-L-leucine borate-N′-(3-benzyloxy-phenylamine)-urea], the inhibition at 0.2 µM is 49.5% in assay [1], -13.7% in assay [2] and -0.748% in assay [3]. Further, the results for the inhibition at 2 µM in assay [1], in assay [2] and in assay [3] were 91%, -20.5% and 47.2%, respectively. Moreover, the figures for the inhibition at 20 µM in assay [1], in assay [2] and in assay [3] were 94.2%, -20.3% and 90.5%, respectively. In addition, the inhibition at 0.1 µM was found to be 17.4% in assay [4], 32.7% in assay [5], 43.2% in assay [6] and 23.7% in assay [7]. The inhibition at 1 µM in assay [4] is 42.5%; in assay [5], 68.8%; in assay [6], 42.7%; in assay [7] it was 56%. Further, the inhibition at 10 µM in assay [4] worked out at 75.7%; in assay [5], 81.3%; in assay [6] it was 81.6%; in assay [7], 73%.

As to `CC(C)C[C@H](NC(=O)[C@H](Cc1ccccc1)NC(=O)N[C@@H](Cc1ccccc1)C(=O)Nc1cnccn1)B(O)O` [Example 24, N-L-phenylalanyl-L-leucine borate-N′-(pyrazin-2-ylcarbamoyl)-L-phenylalanine-urea], the results for the inhibition at 0.2 µM in assay [1], in assay [2] and in assay [3] were 84.6%, -21.8% and -0.926%, respectively. Further, the inhibition at 2 µM is 95.7% in assay [1], -24.7% in assay [2] and 43.5% in assay [3]. The inhibition at 20 µM was 97.4% in assay [1], -24.2% in assay [2] and 90.2% in assay [3]. Besides, the inhibition at 0.1 µM came out at 24.7% in assay [4], 29.5% in assay [5], 36.3% in assay [6] and 19.7% in assay [7]. Further, the inhibition at 1 µM in assay [4] came out at 45.3%; in assay [5], 61.5%; in assay [6] it was 45.6%; in assay [7], 33.3%. Moreover, the inhibition at 10 µM in assay [4] worked out at 48.6%; in assay [5] it was 70.2%; in assay [6], 51.1%; in assay [7] it was 45.1%.

On to `CC(C)C[C@H](NC(=O)[C@H](Cc1ccccc1)NC(=O)N1CCCc2ccccc21)B(O)O` [Example 38, N-L-phenylalanyl-L-leucine borate-N′-1,2,3,4-tetrahydroquinoline-urea], for which the concentration for half-maximal inhibition (IC50) in assay [8] was 0.137 ± 0.011 µM.

For the compound `CC(C)C[C@H](NC(=O)[C@H](Cc1ccccc1)NC(=O)N1CCc2ccccc2C1C)B(O)O` (stereo partly drawn) [Example 39, N-L-phenylalanyl-L-leucine borate-N′-1-methyl-1,2,3,4-tetrahydroisoquinoline-urea], in assay [8], the 50% inhibitory concentration (IC50) came out at 0.139 ± 0.004 µM.

For the compound `CC(C)C[C@H](NC(=O)[C@H](CC(C)C)NC(=O)N1CCc2ccccc2C1)B(O)O` [Example 40, N-L-leucyl-L-leucine borate-N′-1,2,3,4-tetrahydroisoquinoline-urea], in assay [8], the IC50 turned out to be 0.163 ± 0.008 µM.

For `CC(C)C[C@H](NC(=O)[C@H](C)NC(=O)N1CCc2ccccc2C1)B(O)O` [Example 41, N-L-alanyl-L-leucine borate-N′-1,2,3,4-tetrahydroisoquinoline-urea], in assay [8], the IC50 came to 0.134 ± 0.003 µM.

Consider `CC(C)C[C@H](NC(=O)[C@@H](NC(=O)N1CCc2ccccc2C1)C(C)C)B(O)O` [Example 42, N-L-valyl-L-leucine borate-N′-1,2,3,4-tetrahydroisoquinoline-urea], for which, in assay [8], the IC50 is 0.143 ± 0.004 µM.

In the case of `CC(C)C[C@H](NC(=O)[C@H](Cc1ccc2ccccc2c1)NC(=O)N1CCc2ccccc2C1)B(O)O` [Example 43, N-L-naphthylalanyl-L-leucine borate-N′-1,2,3,4-tetrahydroisoquinoline-urea], the IC50 in assay [8] stood at 0.0173 ± 0.003 µM.

For `CC[C@H](C)[C@H](NC(=O)N1CCc2ccccc2C1)C(=O)N[C@@H](CC(C)C)B(O)O` [Example 44, N-L-isoleucyl-L-leucine borate-N′-1,2,3,4-tetrahydroisoquinoline-urea], in assay [8], the IC50 was determined as 0.139 ± 0.004 µM.

Turning to `CC(C)C[C@H](NC(=O)[C@H](Cc1c[nH]c2ccccc12)NC(=O)N1CCc2ccccc2C1)B(O)O` [Example 45, N-L-tryptophanyl-L-leucine borate-N′-1,2,3,4-tetrahydroisoquinoline-urea], in assay [8], the IC50 turned out to be 0.0092 ± 0.001 µM.

For the compound `CC(C)C[C@H](NC(=O)[C@H](Cc1ccccc1)NC(=O)N1CCc2ccc([N+](=O)[O-])cc2C1)B(O)O` [Example 46, N-L-phenylalanyl-L-leucine borate-N′-7-nitro-1,2,3,4-tetrahydroisoquinoline-urea], the IC50 in assay [8] was 0.0046 µM.

Regarding `CC(C)C[C@H](NC(=O)[C@H](CCc1ccccc1)NC(=O)N1CCc2ccccc2C1)B(O)O` [Example 47, N-L-homophenylalanyl-L-leucine borate-N′-1,2,3,4-tetrahydroisoquinoline-urea], the IC50 in assay [8] worked out at 0.0244 ± 0.005 µM.

Turning to `CC(C)C[C@H](NC(=O)[C@H](Cc1ccc([N+](=O)[O-])cc1)NC(=O)N1CCc2ccccc2C1)B(O)O` [Example 48, N-L-4-nitro-phenylalanyl-L-leucine borate-N′-1,2,3,4-tetrahydroisoquinoline-urea], the IC50 in assay [8] is 0.111 ± 0.009 µM.

Regarding `CC(C)C[C@H](NC(=O)[C@H](CCC(N)=O)NC(=O)N1CCc2ccccc2C1)B(O)O` [Example 49], the half-inhibitory concentration (IC50) in assay [8] amounted to 0.0401 ± 0.005 µM.

Consider `COc1cc2c(cc1OC)CN(C(=O)N[C@@H](Cc1ccccc1)C(=O)N[C@@H](CC(C)C)B(O)O)CC2` [Example 50, N-L-phenylalanyl-L-leucine borate-N′-6,7-dimethoxy-1,2,3,4-tetrahydroisoquinoline-urea], for which the IC50 in assay [8] came to 0.0172 ± 0.002 µM.

As to `COc1ccc2c(c1)CN(C(=O)N[C@@H](Cc1ccccc1)C(=O)N[C@@H](CC(C)C)B(O)O)CC2` [Example 51, N-L-phenylalanyl-L-leucine borate-N′-7-methoxy-1,2,3,4-tetrahydroisoquinoline-urea], the IC50 in assay [8] is > 100 µM.

Consider `COc1ccc2c(c1)CCN(C(=O)N[C@@H](Cc1ccccc1)C(=O)N[C@@H](CC(C)C)B(O)O)C2` [Example 52, N-L-phenylalanyl-L-leucine borate-N′-6-methoxy-1,2,3,4-tetrahydroisoquinoline-urea], for which the IC50 in assay [8] is 0.85 ± 0.106 µM.

For the compound `COc1cccc2c1CN(C(=O)N[C@@H](Cc1ccccc1)C(=O)N[C@@H](CC(C)C)B(O)O)CC2` [Example 53, N-L-phenylalanyl-L-leucine borate-N′-8-methoxy-1,2,3,4-tetrahydroisoquinoline-urea], the IC50 in assay [8] was determined as 2.24 ± 0.503 µM.

Turning to `COc1cccc2c1CCN(C(=O)N[C@@H](Cc1ccccc1)C(=O)N[C@@H](CC(C)C)B(O)O)C2` [Example 54, N-L-phenylalanyl-L-leucine borate-N′-5-methoxy-1,2,3,4-tetrahydroisoquinoline-urea], in assay [8], the half-inhibitory concentration (IC50) worked out at 0.361 ± 0.088 µM.

`CC(C)C[C@H](NC(=O)[C@H](Cc1ccccc1)NC(=O)N1CCc2ccsc2C1)B(O)O` [Example 55, N-L-phenylalanyl-L-leucine borate-N′-4,5,6,7-tetrahydrothieno[2,3-c]pyridine-urea]: the IC50 in assay [8] turned out to be 0.006 µM.

As usually defined, the inhibition is the change of the read-out against control, counted positive when it falls. As usually defined, the IC50 is the concentration needed to halve the response being measured.
